From US6399575B1, “Methods and compositions for targeting compounds to the central nervous system” (Auburn University, priority 1998, dated 2002)
“Also recorded” adds a separate entry of the source.

Assays:
skeletal muscle = conditions: as described in U.S. Pat. No. 6,329,501; cited from earlier work
brain tissue = experiment: in vivo selection of brain-binding phage-displayed peptides by panning in mice; parameters: species or system BALB/c mice; conditions: phage library injected intravenously, 30 min to 1 hour circulation, brain tissue recovered, four rounds
Method: FIG. 1 provides the scheme for selection of tissue specific phage in vivo. In this example, candidate brain-binding peptides were selected by panning in BALB/c mice. In round one of selection, the phage library was injected intravenously. After thirty minutes of circulation, the mice were euthanized by carbon dioxide inhalation, perfused with 60 ml of ice cold PBS via the left ventricle, and brain tissue was recovered from the animals. The tissue was minced into small pieces and rinsed repeated in PBS, followed by homogenization in lysis buffer. The tissue homogenate was then incubated with fresh E coli cells and the phage present allowed to infect and lyse the bacteria. Phage were recovered by polyethylene glycol precipitation of the lysate. In subsequent rounds, the phage purified from brain tissues recovered in the previous round was injected intravenously, and tissue was recovered after thirty to sixty minutes of circulation. After the last round, the phages were plated on a lawn of bacteria and a number of pliage plaques were isolated and the DNA sequenced. Of these, a certain percentage represented the dominant selected clone.
To remove unbound, non-specific phage, from the parenchyma of the tissue, the screening protocol of Example 2 was modified. After intravenous administration, the phage were left in circulation for 1 hour (30 minutes in Example 2) to allow more phage clones with CNS binding affinity to reach their target. CNS tissue samples were then homogenized in TBS buffer instead of the lysis buffer which was used at this step previously. Tissue homogenates were pelleted by centrifugation and the supernatant was discarded. The pellet was washed two more times in TBS to remove unbound phage. The pellet was re-homogenized in lysis buffer and the remainder of the selection protocol was completed as described in Example 2. The following brain specific peptides were determined: […]

| Substance | binding to skeletal muscle (skeletal muscle) | binding to brain (brain tissue) |
| --- | --- | --- |
| GETRAPL [Gly-Glu-Thr-Arg-Ala-Pro-Leu] | capable of binding to skeletal muscle; also recorded: also binds skeletal muscle | binding to brain |
| LFTPPVL [Leu-Phe-Thr-Pro-Pro-Val-Leu, brain specific peptide selected by in vivo phage display] |  | specific for binding to the brain |
| LPHQNNR [Leu-Pro-His-Gln-Asn-Asn-Arg, brain specific peptide selected by in vivo phage display] |  | specific for binding to the brain |
| LPLTPLP [Leu-Pro-Leu-Thr-Pro-Leu-Pro, brain specific peptide selected by in vivo phage display] |  | specific for binding to the brain |
| QPTASLT [Gln-Pro-Thr-Ala-Ser-Leu-Thr, brain specific peptide selected by in vivo phage display] |  | specific for binding to the brain |
| SSHTISF [Ser-Ser-His-Thr-Ile-Ser-Phe, brain specific peptide selected by in vivo phage display] |  | specific for binding to the brain |
